Source: ChEMBL document CHEMBL3102823, “Tetramic acid analogues produced by coculture of Saccharopolyspora erythraea with Fusarium pallidoroseum” (2014)
Active and inactive are the calls of the source. The calls are words filed in the database; no cut-off is given here.

Legend:
[1] = tested on: Saccharopolyspora erythraea; experiment: Antibacterial activity against Saccharopolyspora erythraea by Kirby-Bauer disk diffusion assay
[2] = (§1) Cytotoxicity against human NCI60 cells assessed as growth inhibition by SRB assay; assay type: functional
[3] = tested on: Staphylococcus aureus; experiment: Antibacterial activity against Staphylococcus aureus by Kirby-Bauer disk diffusion assay; assay type: functional
[4] = tested on: CCRF-CEM; experiment: Cytotoxicity against human CCRF-CEM cells assessed as growth inhibition by SRB assay; assay type: functional
[5] = tested on: NCI60; experiment: as §1; assay type: functional

SMILES: C/C=C/[C@@H]1C=C[C@@H]2C[C@@](C)(O)CC[C@H]2[C@]1(C)C(=O)C1=C(O)[C@H](CO)N(C)C1=O
- Activity [1]: inactive
- GI50 [2]: > 20 µM
- %max [3]: inactive

SMILES: CN1C(=O)C(C(=O)[C@@]2(C)[C@@H]3CC[C@@H](CO)C[C@H]3C=C[C@H]2/C=C/CO)=C(O)C1CO (mixture of isomers)
- Activity [1]: inactive
- GI50 [2]: > 20 µM
- Activity [3]: inactive

SMILES: C/C=C/C1C=C[C@@H]2C[C@H](CO)CC[C@H]2[C@]1(C)C(=O)C1=C(O)[C@H](CO)N(C)C1=O (some centres undefined)
- GI50 [2]: > 20 µM

SMILES: C/C=C/[C@@H]1C=C[C@@H]2C[C@H](C)CC[C@H]2[C@]1(C)/C(O)=C1/C(=O)[C@H](CO)N(C)C1=O
- MIC [1]: 2.5 µg
- GI50 [4]: 0.144 µM
- growth inhibition (GI) [5]: Active
- MIC [3]: <1.25 µg

SMILES: C/C=C/[C@@H]1C=C[C@@H]2C[C@H](CO)CC[C@H]2[C@]1(C)C(=O)C1=C(O)[C@H](CO)NC1=O
- Activity [1]: inactive
- GI50 [2]: > 20 µM
- Activity [3]: inactive
